Experimental data taken from ChEMBL document CHEMBL1140740, “Discovery of benzisoxazoles as potent inhibitors of chaperone heat shock protein 90” (J Med Chem, 2008).
Values after ≈ are worked out from the molar mass of the structure shown. Active and inactive are the calls of the source. No cut-off for these calls is given here.

Columns and labels:
[1] = biological target: Heat shock protein HSP 90-alpha (Homo sapiens, UniProt P07900)
Description: Inhibition of human Hsp90-alpha by fluorescence polarization assay

HCT-116 [2] = experiment: Antiproliferation activity against human HCT116 cells; type: functional, cell-based
LNCaP [3] = experiment: Androgen receptor degradation in human LnCAP cells; type: functional, cell-based
LNCaP [4] = experiment: Antiproliferation activity against human LnCap cells; type: functional, cell-based
[5] = biological target: Serine/threonine-protein kinase mTOR (Homo sapiens, UniProt P42345); experiment: Inhibition of mTOR
DU-145 = experiment: Antiproliferation activity against human DU145 cells; type: functional, cell-based
[6] = biological target: Serine/threonine-protein kinase B-raf (Homo sapiens, UniProt P15056); experiment: Inhibition of B-Raf
[7] = biological target: T1, Protein kinase C epsilon type (Homo sapiens, UniProt Q02156); experiment: Inhibition of PKC epsilon
T1 sequence (Q02156 whole entry): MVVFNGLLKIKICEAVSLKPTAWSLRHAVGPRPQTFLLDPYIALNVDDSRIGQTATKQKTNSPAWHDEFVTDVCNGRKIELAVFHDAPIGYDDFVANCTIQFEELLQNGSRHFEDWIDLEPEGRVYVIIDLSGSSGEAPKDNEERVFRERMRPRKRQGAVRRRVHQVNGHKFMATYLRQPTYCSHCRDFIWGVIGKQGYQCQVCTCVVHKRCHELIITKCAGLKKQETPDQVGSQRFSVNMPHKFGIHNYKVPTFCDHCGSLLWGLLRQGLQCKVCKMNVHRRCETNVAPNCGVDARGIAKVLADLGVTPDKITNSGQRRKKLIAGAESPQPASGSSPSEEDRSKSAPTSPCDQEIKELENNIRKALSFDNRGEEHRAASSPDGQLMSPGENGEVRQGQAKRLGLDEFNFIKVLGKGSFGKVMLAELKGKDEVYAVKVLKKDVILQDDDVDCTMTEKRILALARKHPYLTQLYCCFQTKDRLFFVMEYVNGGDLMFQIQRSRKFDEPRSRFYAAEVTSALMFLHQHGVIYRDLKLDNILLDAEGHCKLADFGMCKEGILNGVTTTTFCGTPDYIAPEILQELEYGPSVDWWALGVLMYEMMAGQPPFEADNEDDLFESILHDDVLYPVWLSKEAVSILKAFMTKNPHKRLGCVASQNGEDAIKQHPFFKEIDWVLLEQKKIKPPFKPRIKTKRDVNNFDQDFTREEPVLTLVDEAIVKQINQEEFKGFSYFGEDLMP

[8] = biological target: MAP kinase-activated protein kinase 2 (Homo sapiens, UniProt P49137); experiment: Inhibition of MK2
[9] = biological target: T2, Inhibitor of nuclear factor kappa-B kinase subunit beta (Homo sapiens, UniProt O14920); experiment: Inhibition of IKK2
T2 sequence (O14920 whole entry): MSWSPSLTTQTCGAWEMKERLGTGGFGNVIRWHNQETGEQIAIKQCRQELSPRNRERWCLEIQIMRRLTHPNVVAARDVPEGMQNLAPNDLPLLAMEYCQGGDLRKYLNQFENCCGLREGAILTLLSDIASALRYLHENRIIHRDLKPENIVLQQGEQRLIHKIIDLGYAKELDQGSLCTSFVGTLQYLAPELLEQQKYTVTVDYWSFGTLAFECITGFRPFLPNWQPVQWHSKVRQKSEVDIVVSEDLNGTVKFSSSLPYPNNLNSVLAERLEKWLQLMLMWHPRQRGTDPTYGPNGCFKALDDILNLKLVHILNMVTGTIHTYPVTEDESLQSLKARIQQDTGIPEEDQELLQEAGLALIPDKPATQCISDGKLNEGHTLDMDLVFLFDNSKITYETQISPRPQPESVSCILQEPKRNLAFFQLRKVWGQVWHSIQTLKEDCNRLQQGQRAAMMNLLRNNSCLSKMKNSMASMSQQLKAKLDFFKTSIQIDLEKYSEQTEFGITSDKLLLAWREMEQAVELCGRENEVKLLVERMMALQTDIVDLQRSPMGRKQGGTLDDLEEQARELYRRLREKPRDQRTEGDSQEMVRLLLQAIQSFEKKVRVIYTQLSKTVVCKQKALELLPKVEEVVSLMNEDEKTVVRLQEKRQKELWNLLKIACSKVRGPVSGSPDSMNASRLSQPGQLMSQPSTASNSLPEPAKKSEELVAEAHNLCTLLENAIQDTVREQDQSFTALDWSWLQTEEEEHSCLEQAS

K562 [10] = experiment: Degradation of actin in human K562 cells; type: functional, cell-based
K562 [11] = experiment: Downregulation of Bcr-Abl in human K562 cells; type: functional, cell-based
SK-BR-3 [12] = experiment: Antiproliferation activity against human SKBR3 cells; type: functional, cell-based
HCT-116 [13] = experiment: Antiproliferation activity against human HCT116 cells in presence of geldanamycin; type: functional, cell-based
[14] = Antiproliferation activity against human H157 cells; type: functional, cell-based; conditions: NCI-H157
K562 [15] = experiment: Upregulation of Hsp70 in K562 cells; type: functional, cell-based; conditions: Homo sapiens
[16] = biological target: Protein kinase C theta type (Homo sapiens, UniProt Q04759); experiment: Inhibition of PKC theta
[17] = biological target: Phosphatidylinositol 4,5-bisphosphate 3-kinase catalytic subunit alpha isoform (Homo sapiens, UniProt P42336); experiment: Inhibition of P13K alpha
Activin receptor type-2B = Activin receptor type-2B (Homo sapiens, UniProt Q13705); experiment: Inhibition of ActR2B
SK-BR-3 [18] = experiment: Degradation of HER2 in human SKBR3 cells; type: functional, cell-based
[19] = Aqueous solubility at pH 7.4; type: physicochemical
HCT-116 [20] = experiment: Antiproliferation activity against human HCT116 cells

Chain of Activin receptor type-2B (Q13705 whole entry): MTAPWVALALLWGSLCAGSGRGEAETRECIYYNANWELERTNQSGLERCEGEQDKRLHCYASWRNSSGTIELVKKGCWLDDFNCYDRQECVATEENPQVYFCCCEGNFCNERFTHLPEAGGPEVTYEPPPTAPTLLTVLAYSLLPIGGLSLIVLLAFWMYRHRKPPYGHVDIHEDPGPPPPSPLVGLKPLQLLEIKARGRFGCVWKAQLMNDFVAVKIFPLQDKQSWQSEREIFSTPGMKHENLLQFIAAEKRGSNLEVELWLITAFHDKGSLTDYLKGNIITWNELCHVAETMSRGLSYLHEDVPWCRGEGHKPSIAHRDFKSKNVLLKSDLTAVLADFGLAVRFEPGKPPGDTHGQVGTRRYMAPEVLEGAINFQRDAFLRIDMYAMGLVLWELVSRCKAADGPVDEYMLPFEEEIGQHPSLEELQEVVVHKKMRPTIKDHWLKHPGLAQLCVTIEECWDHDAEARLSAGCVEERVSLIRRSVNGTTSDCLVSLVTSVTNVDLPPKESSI
Chain of Phosphatidylinositol 4,5-bisphosphate 3-kinase catalytic subunit alpha isoform (P42336 whole entry, canonical isoform): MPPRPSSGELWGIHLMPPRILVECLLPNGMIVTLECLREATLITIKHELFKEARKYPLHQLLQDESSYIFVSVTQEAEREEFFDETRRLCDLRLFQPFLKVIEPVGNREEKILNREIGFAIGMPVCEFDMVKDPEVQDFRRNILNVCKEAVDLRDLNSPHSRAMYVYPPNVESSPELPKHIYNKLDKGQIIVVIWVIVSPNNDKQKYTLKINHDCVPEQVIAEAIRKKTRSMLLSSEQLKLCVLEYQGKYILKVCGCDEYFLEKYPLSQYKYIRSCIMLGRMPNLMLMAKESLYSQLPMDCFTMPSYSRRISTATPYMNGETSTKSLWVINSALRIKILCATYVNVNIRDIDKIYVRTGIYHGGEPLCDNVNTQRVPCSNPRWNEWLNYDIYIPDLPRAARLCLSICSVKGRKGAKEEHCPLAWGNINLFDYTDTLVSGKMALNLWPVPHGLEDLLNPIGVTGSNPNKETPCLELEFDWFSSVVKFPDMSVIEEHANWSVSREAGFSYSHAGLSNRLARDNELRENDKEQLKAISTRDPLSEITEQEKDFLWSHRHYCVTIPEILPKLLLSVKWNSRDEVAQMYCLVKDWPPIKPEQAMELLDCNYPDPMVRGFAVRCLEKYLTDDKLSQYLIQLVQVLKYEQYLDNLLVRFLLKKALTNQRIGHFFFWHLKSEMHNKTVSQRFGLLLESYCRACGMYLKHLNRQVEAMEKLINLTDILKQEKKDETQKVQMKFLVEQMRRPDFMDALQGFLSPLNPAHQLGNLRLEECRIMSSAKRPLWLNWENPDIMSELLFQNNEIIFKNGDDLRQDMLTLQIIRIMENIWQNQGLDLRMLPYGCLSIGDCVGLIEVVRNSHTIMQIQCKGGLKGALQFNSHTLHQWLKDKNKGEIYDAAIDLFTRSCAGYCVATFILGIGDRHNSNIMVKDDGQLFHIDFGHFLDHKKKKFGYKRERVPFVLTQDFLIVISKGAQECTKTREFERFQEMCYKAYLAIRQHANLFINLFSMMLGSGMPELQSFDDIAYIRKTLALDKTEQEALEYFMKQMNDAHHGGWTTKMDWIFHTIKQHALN
Chain of Protein kinase C theta type (Q04759 whole entry, canonical isoform): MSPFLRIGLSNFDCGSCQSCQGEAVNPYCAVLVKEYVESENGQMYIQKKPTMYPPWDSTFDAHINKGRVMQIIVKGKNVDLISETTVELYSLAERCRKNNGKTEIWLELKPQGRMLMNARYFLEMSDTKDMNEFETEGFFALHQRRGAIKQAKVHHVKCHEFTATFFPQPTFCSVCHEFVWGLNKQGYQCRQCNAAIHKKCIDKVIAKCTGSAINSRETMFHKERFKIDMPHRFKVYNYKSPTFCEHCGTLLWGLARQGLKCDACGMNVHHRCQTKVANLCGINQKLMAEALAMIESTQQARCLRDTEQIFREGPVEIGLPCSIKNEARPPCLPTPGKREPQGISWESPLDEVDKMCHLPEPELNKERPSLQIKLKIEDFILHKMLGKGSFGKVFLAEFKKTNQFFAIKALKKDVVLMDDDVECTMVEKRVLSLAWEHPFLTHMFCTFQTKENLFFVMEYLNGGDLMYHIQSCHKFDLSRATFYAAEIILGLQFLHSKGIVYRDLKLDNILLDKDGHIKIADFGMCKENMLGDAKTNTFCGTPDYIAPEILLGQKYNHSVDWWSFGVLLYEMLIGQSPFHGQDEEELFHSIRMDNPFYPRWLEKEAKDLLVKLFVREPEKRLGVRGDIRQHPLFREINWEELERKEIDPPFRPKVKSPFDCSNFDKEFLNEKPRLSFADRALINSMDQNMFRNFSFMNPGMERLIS
Chain of Serine/threonine-protein kinase B-raf (P15056 whole entry): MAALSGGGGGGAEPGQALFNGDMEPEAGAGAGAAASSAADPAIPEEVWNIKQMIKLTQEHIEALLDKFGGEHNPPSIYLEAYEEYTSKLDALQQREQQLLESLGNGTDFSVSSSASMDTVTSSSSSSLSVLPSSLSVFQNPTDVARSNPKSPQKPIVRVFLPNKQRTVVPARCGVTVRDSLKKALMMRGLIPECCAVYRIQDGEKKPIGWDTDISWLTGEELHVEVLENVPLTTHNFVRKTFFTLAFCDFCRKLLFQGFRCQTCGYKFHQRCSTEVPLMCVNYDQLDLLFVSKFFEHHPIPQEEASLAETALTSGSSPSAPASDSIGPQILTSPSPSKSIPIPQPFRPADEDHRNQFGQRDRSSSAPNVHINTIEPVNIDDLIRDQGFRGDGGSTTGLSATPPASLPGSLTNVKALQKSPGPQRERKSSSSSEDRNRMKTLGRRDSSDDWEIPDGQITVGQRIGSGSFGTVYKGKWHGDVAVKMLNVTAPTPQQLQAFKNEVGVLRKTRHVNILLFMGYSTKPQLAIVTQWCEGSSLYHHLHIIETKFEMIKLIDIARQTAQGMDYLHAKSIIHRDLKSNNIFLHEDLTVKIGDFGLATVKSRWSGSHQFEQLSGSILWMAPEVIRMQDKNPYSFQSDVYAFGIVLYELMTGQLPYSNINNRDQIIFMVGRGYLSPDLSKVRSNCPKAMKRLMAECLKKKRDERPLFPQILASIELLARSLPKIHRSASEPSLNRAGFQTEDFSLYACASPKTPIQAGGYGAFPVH
Chain of MAP kinase-activated protein kinase 2 (P49137 whole entry): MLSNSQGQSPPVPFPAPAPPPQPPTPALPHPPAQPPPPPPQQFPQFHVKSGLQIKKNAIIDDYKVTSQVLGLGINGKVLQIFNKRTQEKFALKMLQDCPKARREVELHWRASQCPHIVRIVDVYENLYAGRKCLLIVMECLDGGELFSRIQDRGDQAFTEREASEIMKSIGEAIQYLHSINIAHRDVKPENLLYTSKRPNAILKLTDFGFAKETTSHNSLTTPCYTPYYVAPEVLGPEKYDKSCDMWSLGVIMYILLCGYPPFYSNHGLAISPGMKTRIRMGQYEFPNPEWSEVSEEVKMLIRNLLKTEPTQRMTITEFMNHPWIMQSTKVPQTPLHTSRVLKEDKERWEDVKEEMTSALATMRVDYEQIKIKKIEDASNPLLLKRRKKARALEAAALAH

In the case of `CN1CCN(c2ccc3onc(-c4cc(Cl)c(O)cc4O)c3c2)CC1`, the IC50 [1] is reported as 800 nM and the IC50 (HCT-116 [2]) is reported as 9400 nM.
Compound `Oc1cc(O)c(-c2noc3ccc(NCCN4CCOCC4)cc23)cc1Br` has an IC50 [1] of 40 nM.
`COc1cc(OC)c(-c2noc3ccc(NCCN4CCOCC4)cc23)cc1Cl` showed an IC50 [1] greater than 20000 nM.
In the case of `Oc1ccc2c(-c3cc(Cl)c(O)cc3O)noc2c1`, the IC50 [1] is reported as 60 nM.
For `COc1ccc2c(-c3cc(Cl)c(OC)cc3OC)noc2c1`, the IC50 [1] was greater than 20000 nM.
Compound `Oc1cc(O)c(-c2noc3ccc(NCCN4CCOCC4)cc23)cc1Cl` has an IC50 (LNCaP [3]) of 330 nM, an IC50 (LNCaP [4]) of 170 nM and an IC50 [5] greater than 20000 nM. It also gave an IC50 (DU-145) of 290 nM, an IC50 [6] greater than 20000 nM and an IC50 [7] greater than 20000 nM. The IC50 [8] was greater than 20000 nM, the IC50 [9] was greater than 20000 nM and the Activity (K562 [10]) was “inactive”. The Activity (K562 [11]) was “Active”, the IC50 (SK-BR-3 [12]) was 370 nM and the IC50 (HCT-116 [13]) was 50 nM. The IC50 (HCT-116 [2]) was 280 nM, the IC50 [14] was 230 nM and the Activity (K562 [15]) was “Active”. For the same compound, the IC50 [16] was greater than 20000 nM, the IC50 [17] was greater than 20000 nM and the IC50 (Activin receptor type-2B) was greater than 20000 nM. For the same compound, the IC50 (SK-BR-3 [18]) was 330 nM.
With `Oc1ccc2c(-c3cc(Br)c(O)cc3O)noc2c1` the solubility [19] was 4 µg/mL (≈ 12.4 µM), the IC50 (HCT-116 [20]) was no less than 20000 nM and the IC50 (SK-BR-3 [18]) was no less than 20000 nM.
`Oc1ccc(-c2noc3cc(O)ccc23)c(O)c1` gave an IC50 [1] of 15200 nM.
